Results published in ChEMBL document CHEMBL1201862, “PubChem BioAssay data set” (2004).
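A five-concentration, 48-hour dose response in 96-well plates underlies each endpoint, interpolated linearly between surrounding concentrations. The concentration for 50% growth inhibition is given as GI50.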 The source made the active and inactive calls. Rule as the data show it: active = GI50 up to about 1.1 µM and inactive = higher.

What was measured:
Experiment in all cases: growth of human tumour cells (NCI), 48 h
[1] = test system: OVCAR-5
[2] = test system: HCC 2998
[3] = test system: NCI-H23
[4] = test system: IGROV-1
[5] = test system: RXF 393
[6] = test system: SF-295
[7] = test system: UO-31
[8] = test system: OVCAR-3
[9] = test system: UACC-62
[10] = test system: NCI-H522
[11] = test system: KM12
[12] = test system: TK-10
[13] = test system: SF-539
[14] = test system: HCT-116
[15] = test system: ACHN
[16] = test system: SK-MEL-2
[17] = test system: A549
[18] = test system: SNB-19
[19] = test system: CCRF-CEM
[20] = test system: SK-MEL-5

SMILES	GI50 [1]	GI50 [2]	GI50 [3]	GI50 [4]	GI50 [5]	GI50 [6]	GI50 [7]	GI50 [8]	GI50 [9]	GI50 [10]	GI50 [11]	GI50 [12]	GI50 [13]	GI50 [14]	GI50 [15]	GI50 [16]	GI50 [17]	GI50 [18]	GI50 [19]	GI50 [20]
Cc1nc2ccc(S(=O)(=O)NS(=O)(=O)c3ccc(-c4ccccc4)cc3)cc2c(=O)n1NS(=O)(=O)c1ccc(-c2ccccc2)cc1	> 100 µM (inactive)	> 100 µM (inactive)	> 100 µM (inactive)	38.3 µM (inactive)	> 100 µM (inactive)	> 100 µM (inactive)	> 100 µM (inactive)	> 100 µM (inactive)	> 100 µM (inactive)	> 100 µM (inactive)	> 100 µM (inactive)	> 100 µM (inactive)	> 100 µM (inactive)	> 100 µM (inactive)	> 100 µM (inactive)	> 100 µM (inactive)	> 100 µM (inactive)	> 100 µM (inactive)	> 100 µM (inactive)	> 100 µM (inactive)
O=S(=O)(Nc1ccccc1)c1ccc(-c2c3nc(c(-c4ccc(S(=O)(=O)Nc5ccccc5)cc4)c4ccc([nH]4)c(-c4ccc(S(=O)(=O)Nc5ccccc5)cc4)c4nc(c(-c5ccc(S(=O)(=O)Nc6ccccc6)cc5)c5ccc2[nH]5)C=C4)C=C3)cc1	> 31.6 µM (inactive)	17.7 µM (inactive)	> 31.6 µM (inactive)	> 93.3 µM (inactive)	> 31.6 µM (inactive)	22.9 µM (inactive)	> 31.6 µM (inactive)	> 10 µM (inactive)	> 31.6 µM (inactive)	> 31.6 µM (inactive)	> 31.6 µM (inactive)	> 31.6 µM (inactive)	> 31.6 µM (inactive)	> 31.6 µM (inactive)	11.1 µM (inactive)	> 31.6 µM (inactive)	> 31.6 µM (inactive)	14.1 µM (inactive)	> 31.6 µM (inactive)	> 31.6 µM (inactive)
Cc1ccc(C(=O)N/N=C2/C(=O)c3c4ccccc4cc4cccc2c34)cc1	> 70 µM (inactive)	38.8 µM (inactive)	24.6 µM (inactive)	15.8 µM (inactive)	12.6 µM (inactive)	19.5 µM (inactive)	17.2 µM (inactive)	22.5 µM (inactive)	26.9 µM (inactive)	18 µM (inactive)	3.89 µM (inactive)	25.2 µM (inactive)	15.5 µM (inactive)	4.78 µM (inactive)	7.82 µM (inactive)	64 µM (inactive)	32.4 µM (inactive)	27.6 µM (inactive)	3.98 µM (inactive)	27.5 µM (inactive)
Brc1nc2c3ccccc3ncn2c1Br	64.9 µM (inactive)	46.9 µM (inactive)	20.7 µM (inactive)	35.9 µM (inactive)	35.6 µM (inactive)	34.4 µM (inactive)	36.7 µM (inactive)	0.316 µM (active)	16.4 µM (inactive)	18.7 µM (inactive)	32.1 µM (inactive)	56.4 µM (inactive)	49.9 µM (inactive)	37.3 µM (inactive)	19.6 µM (inactive)	27.5 µM (inactive)	38.8 µM (inactive)	36.9 µM (inactive)	25.5 µM (inactive)	18.3 µM (inactive)
O=C1/C(=N\O)c2ccccc2S1(=O)=O	> 100 µM (inactive)	18.4 µM (inactive)	–	> 100 µM (inactive)	> 100 µM (inactive)	> 100 µM (inactive)	> 100 µM (inactive)	–	95.9 µM (inactive)	60 µM (inactive)	> 100 µM (inactive)	61.5 µM (inactive)	> 100 µM (inactive)	> 100 µM (inactive)	> 100 µM (inactive)	> 100 µM (inactive)	> 100 µM (inactive)	> 100 µM (inactive)	60 µM (inactive)	> 100 µM (inactive)
COc1ccc(/C=C2/SC(c3c(O)ccc4ccccc34)N(NC(=O)CCCCCCCCC(=O)NN3C(=O)/C(=C\c4ccc(OC)c(OC)c4)SC3c3c(O)ccc4ccccc34)C2=O)cc1OC (stereo not drawn)	21.5 µM (inactive)	5.25 µM (inactive)	2.22 µM (inactive)	0.481 µM (active)	3.56 µM (inactive)	1.39 µM (inactive)	0.486 µM (active)	0.33 µM (active)	1.56 µM (inactive)	0.472 µM (active)	5.16 µM (inactive)	10.4 µM (inactive)	1.01 µM (active)	0.345 µM (active)	0.755 µM (active)	1.08 µM (active)	1.44 µM (inactive)	9.2 µM (inactive)	0.222 µM (active)	0.318 µM (active)
COC(=O)NNc1c([N+](=O)[O-])cnn(-c2ccccc2)c1=O	4.44 µM (inactive)	5.36 µM (inactive)	2.67 µM (inactive)	17.9 µM (inactive)	3.73 µM (inactive)	3.46 µM (inactive)	8.93 µM (inactive)	1.97 µM (inactive)	2.11 µM (inactive)	0.995 µM (active)	5.19 µM (inactive)	18.1 µM (inactive)	3.29 µM (inactive)	1.78 µM (inactive)	4.44 µM (inactive)	2.95 µM (inactive)	12.4 µM (inactive)	10.5 µM (inactive)	0.302 µM (active)	4.07 µM (inactive)
COc1ccccc1CC(C)N (stereo not drawn)	> 100 µM (inactive)	> 100 µM (inactive)	> 100 µM (inactive)	> 100 µM (inactive)	> 100 µM (inactive)	> 100 µM (inactive)	> 100 µM (inactive)	> 100 µM (inactive)	> 100 µM (inactive)	> 100 µM (inactive)	> 100 µM (inactive)	> 100 µM (inactive)	> 100 µM (inactive)	> 100 µM (inactive)	> 100 µM (inactive)	> 100 µM (inactive)	> 100 µM (inactive)	> 100 µM (inactive)	> 100 µM (inactive)	> 100 µM (inactive)
Cc1cccc(C)c1NC(=O)CCc1nnc2s/c(=C\c3ccc(N(C)C)cc3)c(=O)n12	> 100 µM (inactive)	> 100 µM (inactive)	> 100 µM (inactive)	> 100 µM (inactive)	69.2 µM (inactive)	56.1 µM (inactive)	> 100 µM (inactive)	56.1 µM (inactive)	> 100 µM (inactive)	> 100 µM (inactive)	> 100 µM (inactive)	> 100 µM (inactive)	> 100 µM (inactive)	> 100 µM (inactive)	> 100 µM (inactive)	> 100 µM (inactive)	> 100 µM (inactive)	> 100 µM (inactive)	38.6 µM (inactive)	> 100 µM (inactive)
O=C1OC(c2cccc(C(F)(F)F)c2)(c2cccc(C(F)(F)F)c2)c2ccc3ccccc3c21	> 10 µM (inactive)	> 10 µM (inactive)	7.85 µM (inactive)	> 10 µM (inactive)	5.65 µM (inactive)	15.2 µM (inactive)	> 10 µM (inactive)	4.23 µM (inactive)	> 10 µM (inactive)	> 10 µM (inactive)	79.1 µM (inactive)	> 10 µM (inactive)	> 100 µM (inactive)	8.45 µM (inactive)	3.64 µM (inactive)	> 10 µM (inactive)	> 10 µM (inactive)	11.2 µM (inactive)	7.85 µM (inactive)	4.59 µM (inactive)
Cn1nc2ccc3nccc(N(CCO)CCO)c3c2n1	> 100 µM (inactive)	> 100 µM (inactive)	> 100 µM (inactive)	> 100 µM (inactive)	> 100 µM (inactive)	> 100 µM (inactive)	> 100 µM (inactive)	> 100 µM (inactive)	> 100 µM (inactive)	> 100 µM (inactive)	> 100 µM (inactive)	> 100 µM (inactive)	> 100 µM (inactive)	> 100 µM (inactive)	> 100 µM (inactive)	> 100 µM (inactive)	> 100 µM (inactive)	> 100 µM (inactive)	> 100 µM (inactive)	> 100 µM (inactive)
Cc1c(N(C)C)ccc2c(=O)c3cccc(CC(=O)O)c3oc12	> 100 µM (inactive)	> 100 µM (inactive)	> 100 µM (inactive)	> 100 µM (inactive)	> 100 µM (inactive)	> 100 µM (inactive)	> 100 µM (inactive)	> 100 µM (inactive)	> 100 µM (inactive)	> 100 µM (inactive)	> 100 µM (inactive)	> 100 µM (inactive)	> 100 µM (inactive)	> 100 µM (inactive)	> 100 µM (inactive)	> 100 µM (inactive)	> 100 µM (inactive)	> 43.4 µM (inactive)	> 100 µM (inactive)	> 75.3 µM (inactive)
O=S(=O)(O)Nc1ccc(-c2nc3ccccc3s2)cc1Cl	16.1 µM (inactive)	> 100 µM (inactive)	> 100 µM (inactive)	1.67 µM (inactive)	> 100 µM (inactive)	> 100 µM (inactive)	> 100 µM (inactive)	> 100 µM (inactive)	> 100 µM (inactive)	> 100 µM (inactive)	> 100 µM (inactive)	8.09 µM (inactive)	> 100 µM (inactive)	> 100 µM (inactive)	> 100 µM (inactive)	> 100 µM (inactive)	> 100 µM (inactive)	> 100 µM (inactive)	> 100 µM (inactive)	> 100 µM (inactive)
